Legend:
[1] = target: γ-interferon inducible protein-10 (Homo sapiens, UniProt P02778); assay: ELISA, biotinylated versican binding to IP-10 in presence of glycosaminoglycan; conditions: 100 μg/ml glycosaminoglycan; FIG. 5
Procedure: (§1) A well of a 96 well flat bottom microtiter plate was coated with BSA (5 μg/ml), anti-versican monoclonal antibody 2B1 (5 μg/ml), CD44-Ig (7 μg/ml), L-selectin-Ig (3 μg/ml), P-selectin-Ig (3 μg/ml) or chemokine (1 μg/ml), and then blocked with a phosphate buffered physiological saline containing 3% by weight of BSA. As the above chemokine, secondary lymphoid tissue chemokine, γ-interferon inducible protein-10, platelet factor 4, stromal cell-derived factor-1β [manufactured by Pepro Tech] and stromal cell-derived factor-1α [manufactured by Pepro Tech] were used.
(§2) Thereafter, the plate was washed with the buffer A, and enzyme-linked immunosorbent assay was performed in the same manner as that of the previous report [Kawashima, H. et al., J. Biol. Chem., 275, 35448-35456 (2000)]. Binding was determined by measuring absorbance at 620 nm using alkaline phosphatase-conjugated streptavidin and Blue Phos™ substrate. In FIG. 5, expression of an abscissa axis is the same as that of FIG. 4.

[2] = system: P-selectin-Ig; assay: ELISA, biotinylated versican binding to P-selectin-Ig in presence of glycosaminoglycan; conditions: 100 μg/ml glycosaminoglycan; FIG. 5
Procedure: as §1, §2

[3] = target: T1, monomeric P-selectin (Homo sapiens, UniProt P16109); assay: BIAcore surface plasmon resonance, immobilized glycosaminoglycan vs monomeric P-selectin; format: binding; conditions: for koff / kon / Kd: P-selectin, GAG immobilized, 25° C.; for interaction with immobilized glycosaminoglycan (sensorgram): monomeric P-selectin
T1 construct: purchased Genzyme-Techne
T1 sequence (P16109 42-771 limits assumed): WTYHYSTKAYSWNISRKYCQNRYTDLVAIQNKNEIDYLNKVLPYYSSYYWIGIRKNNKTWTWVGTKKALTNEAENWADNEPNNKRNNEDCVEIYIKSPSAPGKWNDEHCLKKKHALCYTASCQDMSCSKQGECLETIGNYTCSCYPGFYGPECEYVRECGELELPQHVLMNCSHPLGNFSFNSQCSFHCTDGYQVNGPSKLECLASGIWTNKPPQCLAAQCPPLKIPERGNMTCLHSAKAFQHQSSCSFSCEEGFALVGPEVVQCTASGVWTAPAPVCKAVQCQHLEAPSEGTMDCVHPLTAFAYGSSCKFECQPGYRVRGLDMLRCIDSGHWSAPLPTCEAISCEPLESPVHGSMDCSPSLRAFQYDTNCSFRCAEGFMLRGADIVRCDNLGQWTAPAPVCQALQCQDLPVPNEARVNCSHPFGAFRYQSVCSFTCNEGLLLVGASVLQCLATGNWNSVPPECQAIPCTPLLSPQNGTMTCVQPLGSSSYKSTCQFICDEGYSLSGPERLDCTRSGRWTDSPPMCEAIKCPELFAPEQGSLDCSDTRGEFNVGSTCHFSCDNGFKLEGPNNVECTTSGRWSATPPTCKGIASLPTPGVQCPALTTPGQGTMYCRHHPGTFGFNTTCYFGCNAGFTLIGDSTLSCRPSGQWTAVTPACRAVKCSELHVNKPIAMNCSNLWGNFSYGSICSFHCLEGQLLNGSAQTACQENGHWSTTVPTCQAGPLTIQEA
Procedure: (§3) Affinity kinetics of the interaction between various CS/DS chains and each of L-selectin, P-selectin, CD44 and chemokine were examined by surface plasmon resonance using BIAcore™ biosensor [manufactured by BIAcore AB].
(§4) All experiments were performed at 25° C. At stages of washing and dissociation, buffer C (20 mM HEPES-NaOH, 0.15M NaCl, 1 mM CaCl2, 1 mM MgCl2, pH6.8) was used as a running buffer.
(§5) First, about 1.8 to 2.0 kiloresonance unit (1 kiloresonance unit=1 ng/mm^2) of streptavidin were covalently immobilized onto B1 sensor chip via a primary amine group using an amine coupling kit [manufactured by Amercham-Bioscience] according to the instruction provided by the manufacturer. The remaining activated groups were blocked with 150 μl of 1M ethanolamine-HCl (pH8.5). Then, each glycosaminoglycan which had been biotinylated at a reducing end was injected to a sensor tip surface by using EZ-link™ biotin-LC-hydrazide [manufactured by Pierce] so as to obtain about 150 resonance unit of an immobilization level, according to the method of Sadir et al. [J. Biol. Chem., 276, 8288-8296 (2001); all teachings of which are hereby incorporated by reference].
(§6) Binding assay was performed by injecting continuously each of various concentrations of secondary lymphoid tissue chemokine, γ-interferon inducible protein-10, stromal cell-derived factor-1β, monomeric L-selectin [manufactured by Genzyme-Techne], monomeric P-selectin [manufactured by Genzyme-Techne] and monomeric CD44, to a glycosaminoglycan-coupled sensor tip at a flow rate of 30 μl/min for 0 to 90 seconds, and then injecting a running buffer thereto. A response in resonance unit was recorded as a function of a time.
(§7) A sensor tip surface was regenerated with 300 μl of 1 M NaCl when chemokine or CD44 was used, or regenerated with 300 μl of 1 M NaCl, and additional 100 μl of 50 mM EDTA (pH8.0), when selectin was used. As a result of regeneration of a sensor tip surface, a remarkable change in a baseline was not observed.
(§8) An affinity kinetic parameter was determined by BIAevaluation 3.0 software [manufactured by Pharmacia Biosensor] using a single site binding model. […] In FIG. 6 and Table 3, SLC denotes secondary lymphoid tissue chemokin, IP-10 denotes γ-interferon inducible protein-10, SDF-1β denotes stromal cell-derived factor-1β, CS E denotes chondroitin sulfate E, and CS A denotes chondroitin sulfate A. In addition, in Table 3, Kd value for the interaction between monomeric CD44 and chondroitin sulfate E is a value calculated from a binding amount at equilibrium, and Kd value of the interaction between CD44 and hyaluronic acid is a value calculated using CD44-Ig.

[4] = target: T2, platelet factor 4 (Homo sapiens, UniProt P02776); assay: ELISA, biotinylated versican binding to PF4 in presence of glycosaminoglycan; conditions: 100 μg/ml glycosaminoglycan; FIG. 5
T2 sequence (P02776 32-101): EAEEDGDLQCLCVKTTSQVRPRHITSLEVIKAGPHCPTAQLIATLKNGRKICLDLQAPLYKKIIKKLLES
Procedure: as §1, §2

[5] = target: T3, stromal cell-derived factor-1β (Homo sapiens, UniProt P48061); assay: BIAcore surface plasmon resonance, immobilized glycosaminoglycan vs SDF-1β; format: binding; conditions: for Kd / koff / kon: GAG immobilized, 25° C.
T3 construct: purchased Pepro Tech
T3 sequence (P48061 22-93): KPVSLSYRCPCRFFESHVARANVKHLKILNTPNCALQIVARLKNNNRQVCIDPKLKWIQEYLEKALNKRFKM
Procedure: as §3, §4, §5, §6, §7, §8

γ-interferon inducible protein-10, sequence (P02778 22-98): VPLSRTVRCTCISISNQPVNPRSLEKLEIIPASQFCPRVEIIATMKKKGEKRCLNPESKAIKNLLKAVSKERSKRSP

Row | inhibition of binding between biotinylated versican and γ-interferon inducible protein-10 [1] | inhibition of binding between biotinylated versican and P-selectin [2] | koff [3] | kon [3] | inhibition of binding between biotinylated versican and platelet factor 4 [4] | interaction with immobilized glycosaminoglycan (sensorgram) [3] | interaction with immobilized glycosaminoglycan (sensorgram) [5] | Kd [3] | Kd [5] | koff [5] | kon [5] | Substance
1 | inhibited | inhibited | 0.000664 s⁻¹ | 24000 M⁻¹ s⁻¹ | inhibited |  |  |  |  |  |  | dermatan polysulfate [DPS]
2 |  |  |  |  |  | did not interact | did not interact |  |  |  |  | chondroitin sulfate A [CS A]
3 | inhibited | inhibited | 0.00125 s⁻¹ | 42100 M⁻¹ s⁻¹ | inhibited | bound | bound | 0.0297 µM | 0.293 µM | 0.0053 s⁻¹ | 18100 M⁻¹ s⁻¹ | chondroitin sulfate E [CS E]
4 | inhibited | inhibited | 0.000759 s⁻¹ | 13400 M⁻¹ s⁻¹ | inhibited |  |  | 0.0568 µM | 0.0863 µM | 0.00304 s⁻¹ | 35200 M⁻¹ s⁻¹ | chondroitin polysulfate [CPS]
